From article PMC9161374 (Science Translational Medicine, 2022)
Values joined by “and” are separate entries in the source; they are usually repeats but may differ in a detail not shown here. Identical values can stand only once. Like-named read-outs stand apart in the source and are kept apart here.

Experiments:
[1] = test system: SARS-CoV-2 replicon system (pBAC-SARS-CoV-2-Replicon-Luc); assay: microbe, parasite or virus in culture; format: cell-based; conditions: Severe acute respiratory syndrome coronavirus 2, HEK-293T, 60 h
[2] = test system: SARS-CoV-2 (B.1) in Huh7 cells; assay: Anti-SARS-CoV-2 activity in Huh7 cells (viral yield by qRT-PCR); format: cell-based; conditions: B.1, MOI 0.05, 48 h
[3] = test system: SARS-CoV-2 (Delta, B.1.617.2); assay: microbe, parasite or virus in culture; format: cell-based; conditions: for % Inhibition: delta
[4] = CCK-8 cell viability assay; format: cell-based, African green monkey; conditions: African green monkey; Vero E6 cells, 48 h, CCK8
Method: To investigate the effect of drugs on cell viability, Vero E6 cells were seeded in 96-well plates at a density of 20,000 cells per well and were treated with drugs at indicated concentrations (0, 0.01, 0.1, 1, 5, 10, 50, 75, 100, 200 μM) for 48 hours. Cell viability was tested by using Cell Counting Kit-8 (CCK-8, Bimake, B34302). The figures were plotted from cell viability percentage versus the drug concentrations using GraphPad Prism 6 software.
Fig. S4. Cytotoxicity assay of compounds in Vero E6 cells.
Vero E6 cells were plated in 96-well plates and treated with increasing concentrations
of each indicated compound, ranging from 0 to 200 μM, for 48 hours. Cell viability was
tested using Cell Counting Kit-8 (CCK-8). Data are presented as mean ± SD.

[5] = test system: SARS-CoV-2 (Beta, B.1.351); assay: microbe, parasite or virus in culture; format: cell-based; conditions: for EC50: read-out: EC50 in Vero E6 cells, SARS-CoV-2 (Beta, B.1.351); for % Inhibition: beta
SARS-CoV-2 (B.1) = assay: Anti-SARS-CoV-2 activity in Vero E6 cells (viral yield by qRT-PCR); format: cell-based
SARS-CoV-2 (strain B.1) = assay: SARS-CoV-2 infection in Ad5-hACE2 mice; format: in vivo, Ad5-hACE2 BALB/c mice

CCCC(=O)OC[C@H]1O[C@@](C#N)(c2ccc3c(N)ncnn23)[C@H](O)[C@@H]1O [ATV009]
EC50 ([1]; read-out: EC50 (Confidence 95%), replicon): 0.217 µM | EC90 ([1]; read-out: EC90 (Confidence 95%), replicon): 0.313 µM | EC50 ([2]; Severe acute respiratory syndrome coronavirus 2, Huh-7, read-out: EC50 (Confidence 95%) in Huh7 cells): 1.03 µM | EC90 ([2]; Severe acute respiratory syndrome coronavirus 2, Huh-7, read-out: EC90 (Confidence 95%) in Huh7 cells): 1.31 µM | EC50 ([3]; Severe acute respiratory syndrome coronavirus 2, Vero C1008, 48 h, read-out: EC50 in Vero E6 cells, SARS-CoV-2 (Delta, B.1.617.2)): 0.492 µM | inhibition at 0.01 µM ([3]; Severe acute respiratory syndrome coronavirus 2, Vero C1008, delta, 0.01 uM, Vero E6, replicates): 0% | inhibition at 0.1 µM ([3]; Severe acute respiratory syndrome coronavirus 2, Vero C1008, delta, 0.1 uM, Vero E6, replicates): 0% | inhibition at 0.25 µM ([3]; Severe acute respiratory syndrome coronavirus 2, Vero C1008, delta, 0.25 uM, Vero E6, replicates): 0% | inhibition at 0.5 µM ([3]; Severe acute respiratory syndrome coronavirus 2, Vero C1008, delta, 0.5 uM, Vero E6, replicates): 57.8% | inhibition at 1 µM ([3]; Severe acute respiratory syndrome coronavirus 2, Vero C1008, delta, 1 uM, Vero E6, replicates): 94% | inhibition at 2 µM ([3]; Severe acute respiratory syndrome coronavirus 2, Vero C1008, delta, 2 uM, Vero E6, replicates): 95.8% | inhibition at 5 µM ([3]; Severe acute respiratory syndrome coronavirus 2, Vero C1008, delta, 5 uM, Vero E6, replicates): 91.8% | inhibition at 10 µM ([3]; Severe acute respiratory syndrome coronavirus 2, Vero C1008, delta, 10 uM, Vero E6, replicates): 99.7% | inhibition at 50 µM ([3]; Severe acute respiratory syndrome coronavirus 2, Vero C1008, delta, 50 uM, Vero E6, replicates): 99.9% | EC90 ([3]; Severe acute respiratory syndrome coronavirus 2, Vero C1008, read-out: EC90 (Confidence 95%), Vero-E6, Delta B.1.617.2): 0.678 µM | % Inhibition ([3]; 0.5 uM, Vero E6, replicates): 47.7229% | % Inhibition ([3]; 1 uM, Vero E6, replicates): 93.0132% | % Inhibition ([3]; 2 uM, Vero E6, replicates): 93.5943% | % Inhibition ([3]; 5 uM, Vero E6, replicates): 86.9079% | % Inhibition ([3]; 10 uM, Vero E6, replicates): 98.6486% | % Inhibition ([3]; 50 uM, Vero E6, replicates): 99.5907% | CC50 at 48 h [4]: > 50 µM | EC50 ([5]; Severe acute respiratory syndrome coronavirus 2, Vero C1008, 48 h): 1.38 µM | inhibition at 0.01 µM ([5]; Severe acute respiratory syndrome coronavirus 2, Vero C1008, beta, 0.01 uM, Vero E6, replicates): 0% | inhibition at 0.1 µM ([5]; Severe acute respiratory syndrome coronavirus 2, Vero C1008, beta, 0.1 uM, Vero E6, replicates): 0% | inhibition at 0.25 µM ([5]; Severe acute respiratory syndrome coronavirus 2, Vero C1008, beta, 0.25 uM, Vero E6, replicates): 0% | inhibition at 0.5 µM ([5]; Severe acute respiratory syndrome coronavirus 2, Vero C1008, beta, 0.5 uM, Vero E6, replicates): 0% | inhibition at 1 µM ([5]; Severe acute respiratory syndrome coronavirus 2, Vero C1008, beta, 1 uM, Vero E6, replicates): 0% | inhibition at 2 µM ([5]; Severe acute respiratory syndrome coronavirus 2, Vero C1008, beta, 2 uM, Vero E6, replicates): 97% | inhibition at 5 µM ([5]; Severe acute respiratory syndrome coronavirus 2, Vero C1008, beta, 5 uM, Vero E6, replicates): 99.7% | inhibition at 10 µM ([5]; Severe acute respiratory syndrome coronavirus 2, Vero C1008, beta, 10 uM, Vero E6, replicates): 99.9% | inhibition at 50 µM ([5]; Severe acute respiratory syndrome coronavirus 2, Vero C1008, beta, 50 uM, Vero E6, replicates): 99.9% | EC90 ([5]; Severe acute respiratory syndrome coronavirus 2, Vero C1008, read-out: EC90 (Confidence 95%), Vero-E6, Beta B.1.351): 1.78 µM | % Inhibition ([5]; 2 uM, Vero E6, replicates): 97.0202% | % Inhibition ([5]; 5 uM, Vero E6, replicates): 99.5977% | % Inhibition ([5]; 10 uM, Vero E6, replicates): 99.9341% | % Inhibition ([5]; 50 uM, Vero E6, replicates): 99.9498% | EC50 [5]: 1.48 µM | % Inhibition (SARS-CoV-2 (B.1); 1 μM, replicates, sheet Fig.S3): 55.195% | % Inhibition (SARS-CoV-2 (B.1); 2 μM, replicates, sheet Fig.S3): 75.409% | % Inhibition (SARS-CoV-2 (B.1); 5 μM, replicates, sheet Fig.S3): 88.59% | % Inhibition (SARS-CoV-2 (B.1); 10 μM, replicates, sheet Fig.S3): 90.9393% | % Inhibition (SARS-CoV-2 (B.1); B.1, 2 uM, Vero E6, replicates, 2 µM): 99.9224% | % Inhibition (SARS-CoV-2 (B.1); B.1, 5 uM, Vero E6, replicates, 5 µM): 99.9224% | % Inhibition (SARS-CoV-2 (B.1); B.1, 10 uM, Vero E6, replicates, 10 µM): 99.9809% | % Inhibition (SARS-CoV-2 (B.1); B.1, 50 uM, Vero E6, replicates, 50 µM): 99.9896% | inhibition at 0.1 µM (SARS-CoV-2 (B.1); Severe acute respiratory syndrome coronavirus 2, Vero C1008, 0.1 μM, replicates, sheet Fig.S3): 0% | inhibition at 0.5 µM (SARS-CoV-2 (B.1); Severe acute respiratory syndrome coronavirus 2, Vero C1008, 0.5 μM, replicates, sheet Fig.S3): 0% | inhibition at 1 µM (SARS-CoV-2 (B.1); Severe acute respiratory syndrome coronavirus 2, Vero C1008, 1 μM, replicates, sheet Fig.S3): 63.5% | inhibition at 2 µM (SARS-CoV-2 (B.1); Severe acute respiratory syndrome coronavirus 2, Vero C1008, 2 μM, replicates, sheet Fig.S3): 75.7% | inhibition at 5 µM (SARS-CoV-2 (B.1); Severe acute respiratory syndrome coronavirus 2, Vero C1008, 5 μM, replicates, sheet Fig.S3): 90.9% | inhibition at 10 µM (SARS-CoV-2 (B.1); Severe acute respiratory syndrome coronavirus 2, Vero C1008, 10 μM, replicates, sheet Fig.S3): 93.2% | inhibition at 0.01 µM (SARS-CoV-2 (B.1); Severe acute respiratory syndrome coronavirus 2, Vero C1008, B.1, 0.01 uM, Vero E6, replicates): 0% | inhibition at 0.1 µM (SARS-CoV-2 (B.1); Severe acute respiratory syndrome coronavirus 2, Vero C1008, B.1, 0.1 uM, Vero E6, replicates): 0% | inhibition at 0.25 µM (SARS-CoV-2 (B.1); Severe acute respiratory syndrome coronavirus 2, Vero C1008, B.1, 0.25 uM, Vero E6, replicates): 0% | inhibition at 0.5 µM (SARS-CoV-2 (B.1); Severe acute respiratory syndrome coronavirus 2, Vero C1008, B.1, 0.5 uM, Vero E6, replicates): 0% | inhibition at 1 µM (SARS-CoV-2 (B.1); Severe acute respiratory syndrome coronavirus 2, Vero C1008, B.1, 1 uM, Vero E6, replicates): 0% | inhibition at 2 µM (SARS-CoV-2 (B.1); Severe acute respiratory syndrome coronavirus 2, Vero C1008, B.1, 2 uM, Vero E6, replicates): 99.8% | inhibition at 5 µM (SARS-CoV-2 (B.1); Severe acute respiratory syndrome coronavirus 2, Vero C1008, B.1, 5 uM, Vero E6, replicates): 99.8% | inhibition at 10 µM (SARS-CoV-2 (B.1); Severe acute respiratory syndrome coronavirus 2, Vero C1008, B.1, 10 uM, Vero E6, replicates): 99.9% | inhibition at 50 µM (SARS-CoV-2 (B.1); Severe acute respiratory syndrome coronavirus 2, Vero C1008, B.1, 50 uM, Vero E6, replicates): 99.9% | EC90 (SARS-CoV-2 (B.1); Severe acute respiratory syndrome coronavirus 2, Vero C1008, read-out: EC90 (Confidence 95%)): 1.53 µM | EC50 (SARS-CoV-2 (B.1); Severe acute respiratory syndrome coronavirus 2, Vero C1008, MOI 0.05, 48 h): 1.33 µM

CC(C)C(=O)OC[C@H]1O[C@@H](n2ccc(NO)nc2=O)[C@H](O)[C@@H]1O [EIDD-2801, molnupiravir, reference compound]
Lung viral titer, Log10 (FFU/g) (SARS-CoV-2 (strain B.1); 500 mg/kg orally once daily, 2 dpi, FFA, individual mice): 3.468 Log10 (FFU/g) and 2.623 Log10 (FFU/g) and 3.1 Log10 (FFU/g) | viral load and pathological damage of the lung (SARS-CoV-2 (strain B.1); ATV006 250 mg/kg, EIDD-2801 500 mg/kg, orally once daily): reduce the viral load and pathological damage of the lung
